These results are taken from PubChem BioAssay AID330 (DTP/NCI, 2004).

This assay concerns P388 leukemia ip, CD2F1 mice, survival T/C. As to the kind of experiment: NCI In Vivo Anticancer Drug Screen. Data for tumor model P388 Leukemia (intraperitoneal) in CD2F1 (CDF1) mice. The following applies: endpoint: median survival time, higher = longer survival. The method in brief: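 Mice carrying the transplanted tumor received test compound or vehicle. Survival was recorded in each group, and the value is the treated-group measurement divided by that of the vehicle-treated control group.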

The mark [1] stands for this setting: dose: 50.0 mg/kg/injection, schedule: Q01DX009 (ip), vehicle: saline.
Setting [2] is: dose: 60.0 mg/kg/injection, schedule: Q01DX005 (ip), vehicle: saline with Tween-80.
[3] abbreviates: dose: 120.0 mg/kg/injection, schedule: Q01DX005 (ip), vehicle: saline with Tween-80.
[4] abbreviates: dose: 240.0 mg/kg/injection, schedule: Q01DX005 (ip), vehicle: saline with Tween-80.
Where [5] appears, read: dose: 50.0 mg/kg/injection, schedule: Q01DX005 (ip), vehicle: saline with Tween-80.
Where [6] appears, read: dose: 100.0 mg/kg/injection, schedule: Q01DX005 (ip), vehicle: saline with Tween-80.

Values joined by “and” are separate entries in the source; they are usually repeats but may differ in a detail not shown here. Equal entries are not always repeated. Inconclusive results and toxic doses are left out.

Consider `CC(=O)OCC1OC(n2cc(CBr)nn2)C(OC(C)=O)C(OC(C)=O)C1OC(C)=O` (stereo not drawn), for which the T/C (dose: 6.25 mg/kg/injection, schedule: Q01DX009 (ip), vehicle: distilled water + Tween-80) was 102 % of control and 94 % of control; the T/C (dose: 6.25 mg/kg/injection, schedule: Q01DX009 (ip), vehicle: saline) was 93 % of control; the T/C (dose: 12.5 mg/kg/injection, schedule: Q01DX009 (ip), vehicle: distilled water + Tween-80) is 106 % of control and 115 % of control; the T/C (dose: 25.0 mg/kg/injection, schedule: Q01DX009 (ip), vehicle: distilled water + Tween-80) was 115 % of control; the T/C (dose: 50.0 mg/kg/injection, schedule: Q01DX009 (ip), vehicle: distilled water + Tween-80) was 118 % of control; the T/C under setting [1] is 163 % of control. The T/C by setting is: (dose: 50.0 mg/kg/injection, schedule: Q04DX003 (ip), vehicle: saline) 101 % of control; (dose: 100.0 mg/kg/injection, schedule: Q01DX009 (ip), vehicle: distilled water + Tween-80) 90 % of control; (dose: 100.0 mg/kg/injection, schedule: Q04DX003 (ip), vehicle: saline) 99 % of control.
As for `Nc1ccn(COC(COCc2ccccc2)COCc2ccccc2)c(=O)n1`, the T/C runs as follows: under setting [2], 105 % of control; under setting [3], 96 % of control; under setting [4], 110 % of control.
With `CC(C)(C)OC(=O)C1CCON1C1OC(C(O)CO)C2OC(C)(C)OC21` (stereo not drawn), the T/C is 100 % of control (dose: 50.0 mg/kg/injection, schedule: Q01DX005 (ip), vehicle: Klucel (hydroxypropylcellulose) (HPC)); 100 % of control and 98 % of control (dose: 100.0 mg/kg/injection, schedule: Q01DX005 (ip), vehicle: Klucel (hydroxypropylcellulose) (HPC)); 95 % of control and 104 % of control (dose: 200.0 mg/kg/injection, schedule: Q01DX005 (ip), vehicle: Klucel (hydroxypropylcellulose) (HPC)).
With `COC(=O)C1(c2ccccc2)N=C(c2ccc(C)cc2)ON1c1ccccc1` (stereo not drawn), the T/C is 107 % of control under setting [2], 95 % of control under setting [3] and 92 % of control under setting [4].
Consider `CO/C1=C\C(C)=C\C(C)C(O)C(C)C/C(C)=C/C=C/C(OC)C(C(C)C(O)C(C)C2(O)CC(O)C(C)C(C(C)C)O2)OC1=O` (stereo not drawn), for which the T/C by setting is: (dose: 1.25 mg/kg/injection, schedule: Q01DX005 (ip), vehicle: other) 104 % of control; (dose: 2.5 mg/kg/injection, schedule: Q01DX005 (ip), vehicle: other) 104 % of control; (dose: 5.0 mg/kg/injection, schedule: Q01DX005 (ip), vehicle: other) 113 % of control.
As to `Cl/N=N/c1nc(-c2ccccc2)[nH]c1-c1ccccc1`, the T/C was 109 % of control (dose: 50.0 mg/kg/injection, schedule: Q01DX001 (ip), vehicle: suspension in saline); 101 % of control (dose: 100.0 mg/kg/injection, schedule: Q01DX001 (ip), vehicle: suspension in saline); 99 % of control (dose: 200.0 mg/kg/injection, schedule: Q01DX001 (ip), vehicle: suspension in saline).
With `N#CN(Cc1ccccc1)Cc1ccccc1.[I][Sn]([c]1ccccc1)([c]1ccccc1)[c]1ccccc1`, the T/C is 101 % of control (dose: 1.5 mg/kg/injection, schedule: Q01DX005 (ip), vehicle: saline with Tween-80); 108 % of control (dose: 3.0 mg/kg/injection, schedule: Q01DX005 (ip), vehicle: saline with Tween-80); 100 % of control (dose: 6.0 mg/kg/injection, schedule: Q01DX005 (ip), vehicle: saline with Tween-80); 94 % of control (dose: 6.25 mg/kg/injection, schedule: Q01DX005 (ip), vehicle: saline with Tween-80).
On to `CC(C)=CCCC(C)C1CCC2(CO2)C2CC=C(C)C2C1O` (stereo not drawn), for which the T/C was 102 % of control (dose: 20.0 mg/kg/injection, schedule: Q01DX009 (ip), vehicle: Klucel (hydroxypropylcellulose) (HPC)); 96 % of control (dose: 40.0 mg/kg/injection, schedule: Q01DX009 (ip), vehicle: Klucel (hydroxypropylcellulose) (HPC)); 102 % of control (dose: 80.0 mg/kg/injection, schedule: Q01DX009 (ip), vehicle: Klucel (hydroxypropylcellulose) (HPC)); 99 % of control (dose: 160.0 mg/kg/injection, schedule: Q01DX009 (ip), vehicle: Klucel (hydroxypropylcellulose) (HPC)).
Turning to `Clc1ccc(C(Nc2nncs2)Nc2nncs2)c(Cl)c1`, the T/C reads like this: (dose: 100.0 mg/kg/injection, schedule: Q04DX002 (ip), vehicle: Klucel (hydroxypropylcellulose) (HPC)) 109 % of control; (dose: 200.0 mg/kg/injection, schedule: Q04DX002 (ip), vehicle: Klucel (hydroxypropylcellulose) (HPC)) 114 % of control.
In the case of `CCCCN1CS[C@@H]2CCCC[C@H]21`, the T/C is, setting by setting: (dose: 21.0 mg/kg/injection, schedule: Q01DX005 (ip), vehicle: Klucel (hydroxypropylcellulose) (HPC)) 104 % of control; (dose: 42.0 mg/kg/injection, schedule: Q01DX005 (ip), vehicle: Klucel (hydroxypropylcellulose) (HPC)) 113 % of control; (dose: 84.0 mg/kg/injection, schedule: Q01DX005 (ip), vehicle: Klucel (hydroxypropylcellulose) (HPC)) 116 % of control.
As for `NC(N)=NS(=O)(=O)c1ccc(N=c2c3ccccc3n(Cc3ccccc3)c3ccccc23)cc1`, the T/C under setting [5] is 97 % of control and the T/C under setting [6] was 98 % of control.
For `CC12CCN=C1c1ccc3cc(O)ccc3c1CC2` (stereo not drawn), the T/C reads like this: (dose: 100.0 mg/kg/injection, schedule: Q01DX001 (sc), vehicle: steriod suspending solution) 104 % of control; (dose: 200.0 mg/kg/injection, schedule: Q01DX001 (sc), vehicle: steriod suspending solution) 118 % of control; (dose: 400.0 mg/kg/injection, schedule: Q01DX001 (sc), vehicle: steriod suspending solution) 100 % of control.
As to `O=C(Nc1ccc(CCO)cc1)c1cccc(F)c1`, the T/C is 93 % of control under setting [2], 86 % of control under setting [3] and 86 % of control under setting [4].
For `c1ccc(-c2n[se]c(-c3ccccc3)n2)cc1`, the T/C is 102 % of control (dose: 12.5 mg/kg/injection, schedule: Q04DX002 (ip), vehicle: saline with Tween-80); 95 % of control (dose: 25.0 mg/kg/injection, schedule: Q04DX002 (ip), vehicle: saline with Tween-80); 93 % of control (dose: 50.0 mg/kg/injection, schedule: Q04DX002 (ip), vehicle: saline with Tween-80).
Turning to `Nc1c(S(=O)(=O)O)cc(Nc2cccc(CO)c2)c2c1C(=O)c1ccccc1C2=O`, the T/C is, setting by setting: (dose: 12.5 mg/kg/injection, schedule: Q01DX001 (ip), vehicle: saline) 99 % of control; (dose: 25.0 mg/kg/injection, schedule: Q01DX001 (ip), vehicle: saline) 99 % of control; (dose: 50.0 mg/kg/injection, schedule: Q01DX001 (ip), vehicle: saline) 98 % of control; (dose: 100.0 mg/kg/injection, schedule: Q01DX001 (ip), vehicle: saline) 106 % of control.
In the case of `CCCSc1nc2ccc(N=Cc3ccccc3O)cc2s1`, the T/C was 97 % of control (dose: 50.0 mg/kg/injection, schedule: Q01DX009 (ip), vehicle: Klucel (hydroxypropylcellulose) (HPC)); 90 % of control (dose: 100.0 mg/kg/injection, schedule: Q01DX009 (ip), vehicle: Klucel (hydroxypropylcellulose) (HPC)); 90 % of control (dose: 200.0 mg/kg/injection, schedule: Q01DX009 (ip), vehicle: Klucel (hydroxypropylcellulose) (HPC)).
Consider `OC1COC(c2nn(-c3ccccc3)c3nc4ccccc4nc23)C1O` (stereo not drawn), for which the T/C under setting [5] was 87 % of control; the T/C under setting [6] was 87 % of control; the T/C (dose: 200.0 mg/kg/injection, schedule: Q01DX005 (ip), vehicle: saline with Tween-80) was 87 % of control.
On to `CCCCCCOC(=O)C1=C(NC)CCC1`, for which the T/C under setting [1] was 106 % of control and the T/C (dose: 100.0 mg/kg/injection, schedule: Q01DX009 (ip), vehicle: saline) was 119 % of control.
As to `S=C(CC(=S)N1CCOCC1)N1CCOCC1`, the T/C runs as follows: under setting [2], 103 % of control; under setting [3], 89 % of control; under setting [4], 97 % of control.
Take `C(=C\c1cc2ccc(C3=NCCN3)cc2[nH]1)/c1ccc(C2=NCCN2)cc1`: under “dose: 6.25 mg/kg/injection, schedule: Q04DX003 (ip), vehicle: saline”, the T/C was 118 % of control.
As to `Cc1cc(C2(c3cc(C)c(O)c(Br)c3)OS(=O)(=O)c3ccccc32)cc(Br)c1O`, the T/C was 99 % of control under setting [2], 102 % of control under setting [3] and 90 % of control under setting [4].
In the same order, the values of `c1cncc(C(Nc2cccc3cccnc23)Nc2cccc3cccnc23)c1` are 94 % of control, 91 % of control and 90 % of control.
As to `COc1cc2c(cc1OC)C13CCN4C=C5CCOC6CC(=O)N2C1C6C5CC43` (stereo not drawn), the T/C is 97 % of control (dose: 15.0 mg/kg/injection, schedule: Q01DX005 (ip), vehicle: saline); 98 % of control (dose: 30.0 mg/kg/injection, schedule: Q01DX005 (ip), vehicle: saline); 100 % of control and 103 % of control (dose: 60.0 mg/kg/injection, schedule: Q01DX005 (ip), vehicle: saline).
